Where a name gives a salt, the structure may show the parent alone. Read-outs that look alike come from different tables or passages of the source.
Assays:
PBK = PBK (Homo sapiens (Human), UniProt Q96KB5); test: Kinase assay (IMAP fluorescence polarization, FITC-labeled histone H3 peptide); assay type: biochemical
Description: PBK activity was determined in the presence or absence of compounds using fluorescein isothiocyanate-labeled (FITC-labeled) histone H3 peptide as a substrate. […] The serially diluted compounds, 0.8 ng/micro-L PBK (Carna Biosciences) and 100 nM FITC-labeled histone H3 peptide were reacted in a reaction buffer (20 mM HEPES, 0.01% Tween-20, 0.3 mM MgCl2, 2 mM dithiothreitol, 50 micro-M ATP, pH 7.4) at room temperature for 1 hour. The reaction was stopped by the addition of three fold assay volume of progressive binding solution. […] IC50 values were calculated by nonlinear four parameter fit using SigmaPlot, version 10.0 (Systat Software, Inc.).

A549 cells = test: Cell-based assay, cellular growth (Cell Counting Kit-8, 72 hours); conditions: Homo sapiens, A549, 72 h
Description: (§1) 100 micro-L of cell suspension was seeded onto 96-well microtiter plate (ViewPlate-96FTC, PerkinElmer). […] Cellular growth was determined using Cell Counting Kit-8 (DOJINDO) at 72 hours after the exposure of the candidate inhibitors. […] Accurate IC50 values were calculated as described previously.

BT-549 cells = test: as above; conditions: Homo sapiens, BT549 cells
Description: as §1

T47D cells = test: as above; conditions: Homo sapiens, T47D, 72 h
Description: as §1

HT-1197 cells = test: Cell-based assay, cellular growth (Cell Counting Kit-8, 72 hours), PBK-negative control cells; conditions: Homo sapiens, HT1197, 72 h
Description: as §1

[1] = PBK 0.8 ng/micro-L, 50 micro-M ATP, 100 nM FITC-labeled histone H3 peptide, room temperature 1 hour

PBK, sequence (Q96KB5 whole entry): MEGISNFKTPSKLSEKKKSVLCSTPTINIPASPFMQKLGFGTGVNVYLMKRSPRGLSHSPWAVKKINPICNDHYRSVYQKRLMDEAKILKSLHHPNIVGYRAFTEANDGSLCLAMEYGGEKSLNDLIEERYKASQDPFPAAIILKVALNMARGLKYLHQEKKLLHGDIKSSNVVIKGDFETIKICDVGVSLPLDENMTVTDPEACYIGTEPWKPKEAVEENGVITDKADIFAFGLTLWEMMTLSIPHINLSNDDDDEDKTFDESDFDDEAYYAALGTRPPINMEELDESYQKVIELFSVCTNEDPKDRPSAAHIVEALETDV

Structure (SMILES) | IC50 (PBK; [1]) [nM] | IC50 (A549 cells) [nM] | IC50 (BT-549 cells) [nM] | IC50 (T47D cells) [nM] | IC50 (HT-1197 cells) [nM] | IC50 (PBK) [nM]
Cc1cc(O)c(-c2ccc(CCN)cc2)c2c1[nH]c(=O)c1sccc12 [Compound 1191, 9-(4-(2-aminoethyl)phenyl)-8-hydroxy-6-methylthieno[2,3-c]quinolin-4(5H)-one hydrochloride] | 19 | 120 | 64 | 73 | 480 | 
Cc1cc(O)c(-c2ccc(C(C)CN(C)C)c(F)c2)c2c1[nH]c(=O)c1sccc12 (centres unmarked) [Compound 1193, 9-(4-(1-(dimethylamino)propan-2-yl)-3-fluorophenyl)-8-hydroxy-6-methylthieno[2,3-c]quinolin-4(5H)-one hydrochloride] |  | 130 | 140 | 240 | 330 | 46
COc1cc(Cl)c2[nH]c(=O)c3sccc3c2c1-c1ccc([C@@H](C)CN)cc1 [Compound 1201, (R)-9-(4-(1-aminopropan-2-yl)phenyl)-6-chloro-8-methoxythieno[2,3-c]quinolin-4(5H)-one hydrochloride] | 20 | 46 | 53 | 120 | 140 | 
COc1cc(C)c2[nH]c(=O)c3sccc3c2c1-c1ccc(CCN)c(F)c1 [Compound 1216, 9-(4-(2-aminoethyl)-3-fluorophenyl)-8-methoxy-6-methylthieno[2,3-c]quinolin-4(5H)-one hydrochloride] | 57 | 280 | 210 | 460 | 640 | 
Cc1cc(O)c(-c2ccc(CCN)c(F)c2)c2c1[nH]c(=O)c1sccc12 [Compound 1217, 9-(4-(2-aminoethyl)-3-fluorophenyl)-8-hydroxy-6-methylthieno[2,3-c]quinolin-4(5H)-one hydrochloride] | 4.7 | 140 | 65 | 84 | 480 | 
NCCc1ccc(-c2c(O)cc(Cl)c3[nH]c(=O)c4sccc4c23)cc1F [Compound 1219, 9-(4-(2-aminoethyl)-3-fluorophenyl)-6-chloro-8-hydroxythieno[2,3-c]quinolin-4(5H)-one hydrochloride] | 5.5 | 170 | 100 | 180 | 880 | 

Now from value to compound, other results behind:

IC50 (PBK; [1]) [nM] | IC50 (A549 cells) [nM] | IC50 (BT-549 cells) [nM] | IC50 (T47D cells) [nM] | Structure (SMILES) | IC50 (HT-1197 cells) [nM] | IC50 (PBK) [nM]
5.1 | 21 | 15 | 19 | Cc1cc(O)c(-c2ccc(C(C)CN)c(F)c2)c2c1[nH]c(=O)c1sccc12 (centres unmarked) [Compound 1190, 9-(4-(1-aminopropan-2-yl)-3-fluorophenyl)-8-hydroxy-6-methylthieno[2,3-c]quinolin-4(5H)-one hydrochloride] | 110 | 
15 | 710 | 160 | 1900 | CC(CCl)NS(=O)(=O)c1ccc(-c2c(O)ccc3[nH]c(=O)c4sccc4c23)cc1 (centres unmarked) [Compound 1204, N-(1-chloropropan-2-yl)-4-(8-hydroxy-4-oxo-4,5-dihydrothieno[2,3-c]quinolin-9-yl)benzenesulfonamide] | 15000 | 
19 | 360 | 230 | 380 | NCCc1ccc(-c2c(O)cc(Br)c3[nH]c(=O)c4sccc4c23)cc1F [Compound 1213, 9-(4-(2-aminoethyl)-3-fluorophenyl)-6-bromo-8-hydroxythieno[2,3-c]quinolin-4(5H)-one hydrochloride] | 1700 | 
92 | 490 | 590 | 1200 | Cc1cc(O)c(-c2ccc(CCC#N)cc2)c2c1[nH]c(=O)c1sccc12 [Compound 1226, 3-(4-(8-hydroxy-6-methyl-4-oxo-4,5-dihydrothieno[2,3-c]quinolin-9-yl)phenyl)propanenitrile] | 1300 | 

Source: patent US8962648B2, “Tricyclic compounds and PBK inhibitors containing the same” (OncoTherapy Science, Inc., priority 2010, dated 2015)
